Source: PubChem BioAssay (NCI)
Where “and” joins values, the source holds several entries; their conditions need not be identical. Equal entries are not always repeated.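 Five concentrations, 48 hours, 96-well plates. At the GI50, growth is halved. TGI is the concentration that stops growth completely.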

Experiments:
Test in all cases: NCI anticancer screen, dose series, 48 h
SK-MEL-28 melanoma = system: SK-MEL-28 melanoma
HCT-15 colon = system: HCT-15 colon
SF-295 CNS = system: SF-295 CNS
EKVX NSCLC = system: EKVX NSCLC
DU-145 prostate = system: DU-145 prostate
IGROV1 ovarian = system: IGROV1 ovarian
COLO 205 colon = system: COLO 205 colon
HCT-116 colon = system: HCT-116 colon
NCI-H226 lung = system: NCI-H226 lung
SK-OV-3 ovarian = system: SK-OV-3 ovarian
TK-10 renal = system: TK-10 renal
CCRF-CEM leukemia = system: CCRF-CEM leukemia

| SMILES | TGI (SK-MEL-28 melanoma) [µM] | TGI (HCT-15 colon) [µM] | TGI (SF-295 CNS) | TGI (EKVX NSCLC) | TGI (DU-145 prostate) | TGI (IGROV1 ovarian) [µM] | TGI (COLO 205 colon) | TGI (HCT-116 colon) | TGI (NCI-H226 lung) | TGI (SK-OV-3 ovarian) [µM] | TGI (TK-10 renal) | TGI (CCRF-CEM leukemia) [µM] | GI50 (HCT-15 colon) | GI50 (SF-295 CNS) | GI50 (EKVX NSCLC) | GI50 (IGROV1 ovarian) | GI50 (HCT-116 colon) [µM] | GI50 (NCI-H226 lung) | GI50 (SK-OV-3 ovarian) | GI50 (TK-10 renal) |
| --- | --- | --- | --- | --- | --- | --- | --- | --- | --- | --- | --- | --- | --- | --- | --- | --- | --- | --- | --- | --- |
| CC1(C)C2CC1C(/C=N\OCC(=O)O)=CC2=O (centres undefined) | > 100 | > 100 | > 100 µM | > 100 µM | > 100 µM | > 100 | > 100 µM | > 100 µM | > 100 µM | > 100 | > 100 µM | > 100 |  |  |  |  |  |  |  |  |
| CN(C)Cc1cc(N=Nc2c(Cl)cccc2Cl)ccc1O | > 100 | > 100 | > 100 µM | > 100 µM | > 100 µM | > 100 | > 100 µM | > 100 µM | > 100 µM | > 100 | > 100 µM | > 100 |  |  |  |  |  |  |  |  |
| CCCCCCCCCCCCOCCCCCCCCC/C=C/c1ccc2c(c1)OCCOCCOCCOCCO2 | > 100 | > 100 | 34.2 µM | 61.6 µM | > 100 µM | 50.6 | 35.2 µM | 29.5 µM | 36.7 µM | 34.4 | 41.5 µM | > 100 |  |  |  |  |  |  |  |  |
| COc1ccc(/C=C/C(=N/NC(=O)N/N=C(/C=C/c2ccc(OC)cc2)C(C)C)C(C)C)cc1 | > 100 | > 100 | > 100 µM | > 100 µM | > 100 µM | > 100 | > 100 µM | > 100 µM | > 100 µM | > 100 | > 100 µM | > 100 |  |  |  |  |  |  |  |  |
| CSC1=C(C)S/C(=C\c2ccc(/C=C3\SC(C)=C(SC)S3)cc2)S1 | > 100 | > 100 | > 100 µM | > 100 µM | > 100 µM | > 100 | > 100 µM | > 100 µM | > 100 µM | > 100 | > 100 µM | > 100 |  |  |  |  |  |  |  |  |
| Cc1cccc2c1CC(C1OC(=O)c3c(C)cccc31)C2=O (centres undefined) | > 100 | > 100 | > 100 µM | > 100 µM | > 100 µM | > 100 | > 100 µM | > 100 µM | > 100 µM | > 100 | > 100 µM | > 100 |  |  |  |  |  |  |  |  |
| O=C(c1c(F)c(F)c(F)c(F)c1F)n1c(=O)[nH]c2ccccc21 | 28.3 | 15.6 | 30.6 µM | 29.3 µM | 29.6 µM | 24.2 | 25.7 µM | 12.2 µM | 33.4 µM | 29.7 | 18.5 µM | 18.8 |  |  |  |  |  |  |  |  |
| [N-]=[N+]=NC1(c2ccccc2)C(=O)c2cccc3c4ccccc4n(c23)C1=O (centres undefined) | > 100 | > 100 | > 100 µM | > 100 µM | > 100 µM | > 100 | 38.7 µM | > 100 µM | > 100 µM | > 100 | > 100 µM | > 100 |  |  |  |  |  |  |  |  |
| CCCCC1=C(C(=O)N2CCOCC2)C2(OCCO2)C1Cl (centres undefined) | 53.6 | > 100 | > 100 µM | > 100 µM | > 100 µM | > 100 | 54.3 µM | > 100 µM | > 100 µM | > 100 | > 100 µM | > 100 |  |  |  |  |  |  |  |  |
| CC[C@@]1(O)C(=O)OCc2c1cc1n(c2=O)Cc2c-1nc1ccccc1c2C=Nc1ccc(N[C@@H]2c3cc4c(cc3[C@@H](c3cc(OC)c(O)c(OC)c3)[C@H]3C(=O)OC[C@@H]32)OCO4)cc1 | > 100 |  | 8.02 µM and 15.9 µM | 19.9 µM and 10.9 µM | 0.18 µM and 0.028 µM |  | > 100 µM and 35.8 µM | 6.45 µM and 0.653 µM | 2.71 µM and 0.308 µM | 9.93 | 28.5 µM and 3.33 µM | > 100 | 1.08 µM and 0.236 µM | 0.0619 µM and 0.0503 µM | 2.51 µM and 0.665 µM | 0.274 µM and 0.132 µM | 0.0251 | 0.0483 µM and 0.0179 µM | 0.668 µM and 0.141 µM | 2.16 µM and 0.815 µM |
| CCOC(=O)CCN1C(=O)c2ccc(NC(=O)C(=O)O)cc2S1(=O)=O | > 100 | > 100 | > 100 µM | > 100 µM | > 100 µM | > 100 | > 100 µM | > 100 µM | > 100 µM | > 100 | > 100 µM | > 100 |  |  |  |  |  |  |  |  |
| N/C(=N\Nc1cccc(Cl)c1)c1cccnc1 | > 100 | > 100 | > 100 µM | > 100 µM | > 100 µM | > 100 | > 72.1 µM | > 100 µM | > 100 µM | > 100 | > 100 µM | > 100 |  |  |  |  |  |  |  |  |
| COC1/C=C/C(C)C(C(C)C(OC)C(C)CCC(=O)C(C)C(CC(=O)O)OC)OC(=O)/C=C/C=C(\C)CC(OC)C(OC)C2=CC(=O)O[C@@H](C(C)C(OC)CC(OC)/C=C/C(C)C(O)C1)[C@H]2O (some centres undefined) | 0.267 | 0.926 | 0.261 µM | 0.175 µM | > 1.07 µM | 0.0297 | > 1.07 µM | 0.227 µM | 0.127 µM | 0.289 | 0.306 µM | > 1.07 |  |  |  |  |  |  |  |  |
| Cc1nc2ccc(S(=O)(=O)Nc3ccccn3)cc2c(=O)n1NS(=O)(=O)c1ccccn1 | > 100 | > 100 | > 100 µM | > 100 µM | > 100 µM | > 100 | > 100 µM | > 100 µM | > 100 µM | > 100 | > 100 µM | > 100 |  |  |  |  |  |  |  |  |
| CCOc1cc(NC(C)=O)ccc1C(=O)NN1C(=O)C(Cl)C1c1ccc(O)c(OC)c1 (centres undefined) | 38.2 | 29.9 | 39.1 µM | 31.5 µM | 29 µM | 28.2 | 35.1 µM | 37.7 µM | 48.3 µM | 33.6 | 11.5 µM | 25.8 |  |  |  |  |  |  |  |  |
| CC(C)/C(Cl)=N/OC(NC(=O)Nc1ccc(Cl)c(Cl)c1)(C(F)(F)F)C(F)(F)F | 35.3 | 28.9 | 38.5 µM | 38.1 µM | 31.9 µM | 35.2 | 9.27 µM | 19.7 µM | 42.8 µM | 32.3 | 31.2 µM | 5.71 |  |  |  |  |  |  |  |  |
| O=C1CSC2(CC(/C=C/c3cccc(Br)c3)=NN2c2cccc(S(=O)(=O)O)c2)N1c1nc2ccccc2s1 (centres undefined) | > 100 | > 100 | > 100 µM | > 100 µM | > 100 µM | > 100 | > 100 µM | > 100 µM | > 100 µM | > 100 | > 100 µM | > 100 |  |  |  |  |  |  |  |  |
| O=c1oc2ccccc2cc1-c1nc2ccccc2c(=O)[nH]1 | > 100 | > 100 | > 100 µM | > 100 µM | > 100 µM | > 100 | > 100 µM | > 100 µM | > 100 µM | > 100 | > 100 µM | > 100 |  |  |  |  |  |  |  |  |
| O=C(/C=C/c1ccsc1)c1cccs1 | 46.1 | 37 | > 100 µM | 99.4 µM | > 100 µM | > 100 | 94.2 µM | 31.1 µM | > 100 µM | > 100 | > 100 µM | 54.6 |  |  |  |  |  |  |  |  |
| COc1ccc(C[C@H]2NC[C@H](OC(C)=O)[C@H]2OC(C)=O)cc1 | 0.562 | 0.975 | 4.26 µM | 0.606 µM | 0.903 µM | 0.674 | 0.311 µM | 0.685 µM | 1.08 µM | 2.56 | > 35.3 µM | 1.18 |  |  |  |  |  |  |  |  |
| CC(=O)O[C@H]1CC[C@@]2(C)C(=CC[C@H]3[C@@H]4C[C@H](N5CCN(C)CC5)[C@H](OC(C)=O)[C@@]4(C)CC[C@@H]32)C1 | 26.1 | 26.6 | 45.7 µM | 59.9 µM | > 100 µM | 37.9 | 32.8 µM | 25.7 µM | > 85.6 µM | > 65.8 | > 100 µM | 16 |  |  |  |  |  |  |  |  |
| CNc1nc2c(C)ccc3nc(N(C)C)nc-3c2n1C | > 10 | > 10 | > 10 µM | > 10 µM | > 10 µM | > 10 | > 10 µM | > 10 µM | > 10 µM | > 10 | > 10 µM | > 10 |  |  |  |  |  |  |  |  |
| O=C1c2scc(-c3ccc(F)cc3)c2-n2cccc21 | > 100 | > 100 | > 100 µM | > 100 µM | > 100 µM | > 100 | > 100 µM | > 100 µM | > 100 µM | > 100 | > 100 µM | > 100 |  |  |  |  |  |  |  |  |
| COc1ccc2c(c1)nc1n2C(c2c(F)cccc2F)SC1 (centres undefined) | > 100 | > 100 | > 100 µM | > 100 µM | > 100 µM | > 100 | > 100 µM | > 100 µM | > 100 µM | > 100 | > 100 µM | > 100 |  |  |  |  |  |  |  |  |
